Where a SMILES comes first, the peptide text is derived from it. Where no end group is shown, it is not given here. [ ]: non-standard residue; d: D form. ξ: configuration not given here. ξW = NC(Cc1c[nH]c2ccccc12)C(=O)O; dTic = O=C(O)[C@H]1Cc2ccccc2CN1; Tic = O=C(O)[CH]1Cc2ccccc2CN1; ξF = NC(Cc1ccccc1)C(=O)O
Tests used:
[1] = test system: Holliday junction (HJ) intermediate; assay: in vitro Holliday junction trapping assay (recombination of radiolabeled and unlabeled DNA substrates); type: biochemical; conditions: 0.01 mg/ml concentrations of peptides; FIG. 56
Method: The eight macrocyclic compounds shown in FIGS. 55 were tested for their ability to bind to the HJ in an in vitro assay. The assay employs a recombination reaction between one radiolabeled double-stranded DNA substrate and an unlabeled partner DNA substrate. Successful recombination gives recombination products and very small amounts of HJ intermediate. A previously identified linear peptide dimer of […] was used as a positive control because it was known to accumulate HJs, as described in […] et al., 2000, supra). During the recombination reaction, two initial DNA cleavage and ligation reactions must take place to form the junction, and two subsequent DNA cleavage and ligation reactions resolve the HJs into double stranded recombination products.

[2] = test system: Bare Lymphocyte Syndrome (BLS) cell line; type: cell-based
Method: Toxicity of peptides KWWCRW and WKHYNY was determined by testing the inhibition of a eukaryotic cell line using a vital stain. The peptides were determined to not be cytotoxic in a non-adherent eukaryotic cell line, Bare Lymphocyte Syndrome (BLS), at concentrations below 250 mg/ml. (Allicotti et al, Manuscript in Preparation). The MTT cytotoxicity assay was used to measure cytotoxicity of the class B synergimycin compounds (Mosmann, Immunol. Methods 65:55-63 (1983)). In this assay, 3-(4,5-dimethylthiazol-2-yl)-2,5-diphenyl tetrazolium bromide (MTT) is converted by live cells into the purple compound formazan. The amount of formazan produced is measured at OD570. The absorbance of the sample wells is compared to the absorbance of the control wells. The readings are used to calculate an IC50 for each peptide. This value represents the concentration of each peptide that reduces the growth of the BLS cells to 50% of the maximum growth measured in the controls.

Int protein [3] = molecular target: T1, Int protein (Escherichia phage lambda, UniProt P03700); assay: in vitro recombination reaction catalysed by the Int protein (attL/attR substrates, gel); type: biochemical
Salmonella typhimurium = assay: cell growth assay (OD600); type: cell-based; conditions: Salmonella enterica serovar Typhimurium Ames strain and LT2 strain; peptides in the medium
Int protein [4] = molecular target: T1, Int protein; conditions: Cassell et al. 2000; cited from earlier work
[5] = test system: bacterial strains, both gram positive and gram negative; assay: growth inhibition assays in microtiter plates (cell density at 600 nm); type: cell-based; conditions: 101 μg/ml and 100 μg/ml; FIG. 57
Method: The eight macrocyclic compounds shown in FIGS. 55 were tested for their ability to bind to the HJ and inhibit bacterial growth in an in vivo assay. Growth inhibition assays were performed in microtiter plates, by comparing the growth of bacteria in the presence and absence of compounds. Cell density at 600 nm was determined for a series of bacterial strains, both gram positive and gram negative, in the presence and absence of macrocyclic compounds. […] Measurements were taken using a BioRad microtiter plate reader. […] The diluted cultures were shaken at 37° C. and optical densities were measured at 30-minute intervals in order to follow their growth. […]
In order to test the inhibitory potency of the peptides, cell growth assays were performed. […] The cell growth assays were performed in microtiter plates; measurements are taken using a BioRad microtiter plate reader.
Overnight bacterial cultures were diluted 1:20 into media and each test compound was added in no more than 10% of the volume of the final suspension. […] The diluted cultures were shaken at 37° C. and optical densities were measured at 30 minute intervals to follow their growth. […]
Four linear heptamers prepared according to FIGS. 63 were tested for their bacteria growth inhibition. […] Measurements were taken using a BioRad microtiter plate reader. […]

T1 sequence (P0A6Y1 whole entry): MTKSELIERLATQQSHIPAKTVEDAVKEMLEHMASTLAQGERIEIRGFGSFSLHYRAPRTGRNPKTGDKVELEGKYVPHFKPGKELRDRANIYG
T1 sequence (P03699 whole entry, further chain): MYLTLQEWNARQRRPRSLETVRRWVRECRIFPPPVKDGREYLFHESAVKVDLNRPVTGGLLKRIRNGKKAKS
T1 sequence (P0A6X7 whole entry, further chain): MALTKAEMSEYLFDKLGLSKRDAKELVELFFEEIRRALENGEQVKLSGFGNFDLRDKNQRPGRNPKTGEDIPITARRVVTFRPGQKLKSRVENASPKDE
T1 sequence (P03700 whole entry): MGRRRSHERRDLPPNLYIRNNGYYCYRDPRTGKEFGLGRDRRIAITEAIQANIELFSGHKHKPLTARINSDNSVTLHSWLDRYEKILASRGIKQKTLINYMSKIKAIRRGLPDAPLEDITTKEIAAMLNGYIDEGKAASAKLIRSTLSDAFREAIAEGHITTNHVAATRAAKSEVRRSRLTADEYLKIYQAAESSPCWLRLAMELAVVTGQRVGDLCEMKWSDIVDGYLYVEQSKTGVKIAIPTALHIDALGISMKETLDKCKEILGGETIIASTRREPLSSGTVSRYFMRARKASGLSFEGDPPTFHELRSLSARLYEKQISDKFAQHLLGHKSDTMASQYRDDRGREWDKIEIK

## O=C1NC(Cc2ccccc2)C(=O)N2Cc3ccccc3CC2C(=O)NC(Cc2ccccc2)C(=O)NC(Cc2ccccc2)C(=O)N2Cc3ccccc3CC2C(=O)NC1Cc1ccccc1 (stereo not shown) [A] (cyclo(FF[Tic]FF[Tic]); configuration not given here)
[1]
  accumulation of HJ intermediates / binding to the HJ: particularly active

## KWWCRW [KWWCRW, LysTrpTrpCysArgTrp]
[2]
  concentrations at which not cytotoxic: below 250 mg/ml

## O=C1NC(Cc2ccccc2)C(=O)N2Cc3ccccc3C[C@@H]2C(=O)NC(Cc2ccccc2)C(=O)NC(Cc2ccccc2)C(=O)N2Cc3ccccc3C[C@@H]2C(=O)NC1Cc1ccccc1 (stereo partly shown) [D] (cyclo([dTic][ξF][ξF][dTic][ξF][ξF]))
[1]
  accumulation of HJ intermediates / binding to the HJ: particularly active

## WKHYNY [WKHYNY]
[2]
  concentrations at which not cytotoxic: below 250 mg/ml

## WRWYCR [WRWYCR, TrpArgTrpTyrCysArg]
Int protein [3]
  potency among peptides of a screen for site-specific recombination inhibitors: the most potent
Salmonella typhimurium
  inhibition of bacterial cell growth, FIG. 12: inhibition of bacterial cell growth

## TrpLys(His or Ala)TyrAsnTyr [WK(HorA)YNY]
Int protein [4]
  potency among Holliday junction-stabilizing peptide families: the most potent

## O=C1NC(Cc2c[nH]c3ccccc23)C(=O)N2Cc3ccccc3CC2C(=O)NC(Cc2ccccc2)C(=O)NC(Cc2c[nH]c3ccccc23)C(=O)N2Cc3ccccc3CC2C(=O)NC1Cc1ccccc1 (stereo not shown) [B] (cyclo(FW[Tic]FW[Tic]); configuration not given here)
[1]
  accumulation of HJ intermediates / binding to the HJ: particularly active

## O=C1CNC(=O)C(Cc2c[nH]c3ccccc23)NC(=O)C(Cc2ccccc2)NC(=O)CNC(=O)C(Cc2c[nH]c3ccccc23)NC(=O)C(Cc2ccccc2)N1 (stereo not shown) [H] (cyclo(GFWGFW); configuration not given here)
[5]
  bacterial growth inhibition by macrocyclic compounds: greatest level of activity

## O=C1NC(Cc2c[nH]c3ccccc23)C(=O)N2Cc3ccccc3C[C@@H]2C(=O)NC(Cc2ccccc2)C(=O)NC(Cc2c[nH]c3ccccc23)C(=O)N2Cc3ccccc3C[C@@H]2C(=O)NC1Cc1ccccc1 (stereo partly shown) [E] (cyclo([dTic][ξF][ξW][dTic][ξF][ξW]))
[1]
  accumulation of HJ intermediates / binding to the HJ: particularly active
